Data set [1] is described as follows: Heat sterilization of beclomethasone dipropionate concentrates: content, impurities, particle size. Conditions: 121/30, data not shown. Format: physicochemical. The procedure:
Determination of impurity levels and particle size were also determined as outlined above.

For data set [2] the following is noted: suspensions sterilized by a wet steam process; cited from earlier work.
The nature of data set [3]: Water solubility of budesonide at sterilizing temperatures. Format: physicochemical. The procedure: A balance is required between the solubility of the glucocorticosteroid and the amount of the glucocorticosteroid used per unit of solvent such that at least 50% of the glucocorticosteroid is suspended in the solvent. For example, for budesonide, at the sterilizing temperatures used herein the water solubility is about 7 mg/ml. Therefore, using 15 mg of budesonide per […] provides 53% of budesonide as a suspension. Preferably at least 60% of the glucocorticosteroid is suspended in the solvent although this value could be at least 70% or at least 80%.

Each structure is given as a SMILES string. ≈ marks a conversion by molar mass, not a printed value.

For the molecule `CCC(=O)OCC(=O)[C@@]1(OC(=O)CC)[C@@H](C)C[C@H]2[C@@H]3CCC4=CC(=O)C=C[C@]4(C)[C@@]3(Cl)[C@@H](O)C[C@@]21C` [beclomethasone, beclomethasone dipropionate], in data set [1], the “change in beclomethasone content upon heating in the autoclave” value is recorded as “no significant change”, the “change in particle size distribution on autoclaving” value was “no significant change” and the “increase in impurities upon heating in the autoclave” value is “no significant change in beclomethasone content or increase in impurities”. Besides, in data set [2], the “decrease in active ingredient content” value is 8-9% and the “increase in degradation products” value was 10-11%.
For orientation: solubility means the concentration that dissolves in the medium under given conditions. On to `CCCC1O[C@@H]2C[C@H]3[C@@H]4CCC5=CC(=O)C=C[C@]5(C)[C@H]4[C@@H](O)C[C@]3(C)[C@]2(C(=O)CO)O1` (stereo partly shown) [budesonide], for which, in data set [3] (using 15 mg of budesonide per 1 mg water), the “fraction of budesonide suspended” value is 53%. This molecule yielded a solubility in data set [3] (water, at the sterilizing temperatures used herein) of about 7000 µg/mL (≈ 16.3 mM).

(Values after patent publication US10314785B2, “Sterile pharmaceutical compositions” (NORTON HEALTHCARE LTD, priority 2004, dated 2019).)
